Assays:
[1] = test system: androst-4-ene 3, 17-dione metabolism; assay: Steroid metabolism (androst-4-ene 3, 17-dione metabolism) of liver cells; assay type: cell-based, rat; settings: STZ diabetic rats; Extract 1 200 μg/ml, Extract 2 10-120 μg/ml, Extract 3 1 ng/ml, Insulin 1 ng/ml, Inositol 100-100 μg/ml
Description: Isolated hepatocytes were prepared from control animals by a modification of the double perfusior technique of Seglen (1973) involving […] animal with halothane/nitrous oxide and inserting a cannula into the hepatic portal vein. The liver was subsequently perfused first with a calcium-free buffer and then with collagenase solution. The isolated cells were freed from the connective tissue by gentle combing. Hepatocytes were suspended in Ham's F-10 nutrient solution, Williams' medium E or Krebs-Henseleit medium depending on the assay to be performed. The effects of Extract 1 on steroid metabolism in liver cells was also studied. The animals were killed by CO2 asphyxiation and the liver quickly exised and placed in ice-cold buffer (0.1M phosphate buffer, pH 7.4). The liver was homogenised using a Potter-Elvehjem homogeniser with a teflon pestle and microsomes were prepared by differential centrifugation. The microsomes were resuspended by gentle homogenisation in the same buffer. The protein content was measured by the method of Lowry using bovine serum albumin as standard and the microsomes were diluted by 10 mg protein/ml. The diluted microsomes were assayed for aniline 4-hydroxylase activity and aminopyrine N-demethylase activity (results not shown) and for androst-4-ene 3, 17-dione metabolism using published methodology. […]

[2] = test system: Glycogen phosphorylase a; assay: Glycogen phosphorylase a activity in isolated rat hepatocytes (insulin-like activity); assay type: cell-based; settings: for Activity of liver cells: Glycogen Phosphorylase a activity: isolated rat hepatocytes, Extract 1 200 μg/ml, Extract 3 1 ng/ml, Insulin 1 ng/ml, Inositol 100-100 μg/ml
Description: (§1) Isolated hepatocytes were prepared from control animals by a modification of the double perfusior technique of Seglen (1973) involving anaesthetising he animal with halothane/nitrous oxide and inserting a cannula into the hepatic portal vein. The liver was subsequently perfused first with a calcium-free buffer and then with collagenase solution. The isolated cells were freed from the connective tissue by gentle combing. Hepatocytes were suspended in Ham's F-10 nutrient solution, Williams' medium E or Krebs-Henseleit medium depending on the assay to be performed.
(§2) Glycogen phosphorylase a activity, as an index of insulin-like or glucagon antagonist activity can be measured using falling logarithmic concentrations of analyte in the presence or absence of insulin or glucagon.
Isolated hepatocytes, suspended in Krebs-Henseleit solution at a concentration of 10^6 cells/ml, were treated with Artemisia extract at a concentration of […] (final concentration) in the presence or absence of insulin (10^−7M) or glucagon ([…]) for 2 minutes in a shaking water bath at 37° C. under constant oxygenation with 100% oxygen. The cells were subsequently centrifuged for 30s in a Beckman Microfuge and the pellet resuspended in MOPS buffer (pH 6.5) containing sodium fluoride (12.6 g/l), EDTA (1.85 g/l) and a dithiothreitol (0.31 g/l) at 10^6 cells/ml. The suspended cells were homogenised in a Potter-Elvehjem homogeniser and the homogenate centrifuged at 300×g in a Damon-IEC refrigerated centrifuge at 4° C. for 10 minutes. The resultant supernatant was used to assay for glycogen phosphorylase a activity as described by Preiksatis & Kunos (1979). This technique involves the measurement of [^14C]glycose-1-phosphate to glycogen conversion in the presence of caffeine to inhibit glycogen phosphorylase b activity.
Each fraction was carefully evaporated to dryness and weighed in a tared vessel. The dried samples were redissolved in methanol (100 μl) and (100 μl of H2O for the void volume) and subjected to chromatography. […]

[3] = dietary supplementation; The Lancet May 20, 1989; cited from earlier work
[4] = test system: STZ Diabetic Rats; assay: Antidiabetic activity in STZ diabetic rats; assay type: in vivo, rat; settings: Extract 2 10-120 μg/ml po
Description: This extract, referred to as Extract 1 or Fraction 1, was tested in rats rendered diabetic by administration of Streptotozocin (STZ), and in in vitro tests for insulin-like activity. Toxicity was tested in a bacterial (Ames) mutagenicity test.
Urine was tested for the presence of ketones and glucose using Keto-Diabur Test 5000 sticks (Boehringer Mannheim, Lewes, UK). Glucose was assayed by the glucose oxidase method as described by Trinder (1969) using a kit supplied by the Sigma Chemical Co Ltd, Pool, UK)
The animals were monitored for 7 day periods before being made diabetic, after induction of diabetes by administration of STZ and during Artemisia treatment, so that each animal acted as its own control. Food intake rose after induction of diabetes and fell again following treatment with Artemisia.

[5] = test system: glucagon response; assay: Glycogen phosphorylase a activity in isolated hepatocytes in the presence of glucagon (glucagon antagonist activity); assay type: cell-based, rat; settings: Extract 1 200 μg/ml, Extract 3 1 ng/ml, Insulin 1 ng/ml
Description: as §1, §2
Isolated hepatocytes, suspended in Krebs-Henseleit solution at a concentration of 10^6 cells/ml, were treated with Artemisia extract at a concentration of […] (final concentration) in the presence or absence of insulin (10^−7M) or glucagon ([…]) for 2 minutes in a shaking water bath at 37° C. under constant oxygenation with 100% oxygen. The cells were subsequently centrifuged for 30s in a Beckman Microfuge and the pellet resuspended in MOPS buffer (pH 6.5) containing sodium fluoride (12.6 g/l), EDTA (1.85 g/l) and a dithiothreitol (0.31 g/l) at 10^6 cells/ml. […]

[6] = test system: Escherichia coli and Salmonella typhimurium; assay: Ames bacterial mutagenicity test, liver fraction supplemented; assay type: cell-based; settings: Ames test with liver fraction
From the text: Escherichia coli and Salmonella typhimurium were used in the Ames test (B. N. Ames, J. McCann, E. Yamasaki—Mutation Res. 31 (1975) 347). The bacteria used carry a mutation which makes them dependent upon the presence of a specific nutrient medium for growth. If the test substance added to the growth medium of a plate of such bacteria is mutagenic, then a small proportion of the mutations it induces will cause the nutrient dependency mutation to revert, so that the bacteria will synthesise the nutrient and grow even in its absence. Observing whether colonies grow on nutrient deficient plates in the presence and absence of the test substance will thus reveal whether the substance is mutagenic and can give a measure of the mutagenicity of the substance.

[7] = Extract 1 200 μg/ml po, Extract 3 1 ng/ml po, Insulin 1 ng/ml sc

Row | Molecule | Activity of liver cells: Steroid metabolism [1] | Activity of liver cells: Glycogen Phosphorylase a activity [2] | activity in the in vitro liver cell system ([2]; levels of up to 1 mg/ml) | improvement of nerve function in the management of complications of diabetes mellitus [3] | Excessive food intake ([4]; Extract 1 200 μg/ml po (drinking water), Extract 3 1 ng/ml po, Insulin 1 ng/ml sc) | Diuresis ([4]; Extract 1 200 μg/ml po) | Glucosuria [4, 7] | Ketonuria [4, 7] | Weight gain [4, 7] | Activity of liver cells: Effect on glucagon response [5] | Bacterial mutagenicity [6]
1 | O[C@H]1[C@H](O)[C@@H](O)[C@H](O)[C@@H](O)[C@H]1O [Inositol] | negative | negative | inactive | no evidence |  |  |  |  |  |  | 
2 | Insulin | restored * | decreased *** |  |  | reversed | reduced | reduced | reduced | normalised | reversed *** | negative

From US6350478B1, “Artemisia judaica fractionation method” (Phytotech Limited, priority 1996, dated 2002)
